Series [1] addresses T1, recombinant human P450 enzyme 1A1 (Homo sapiens, UniProt P04798).
T1 construct: host or cells: Bacterial membranes (bactosomes), inferred from the named control preparation
T1 sequence (P04798 1-512): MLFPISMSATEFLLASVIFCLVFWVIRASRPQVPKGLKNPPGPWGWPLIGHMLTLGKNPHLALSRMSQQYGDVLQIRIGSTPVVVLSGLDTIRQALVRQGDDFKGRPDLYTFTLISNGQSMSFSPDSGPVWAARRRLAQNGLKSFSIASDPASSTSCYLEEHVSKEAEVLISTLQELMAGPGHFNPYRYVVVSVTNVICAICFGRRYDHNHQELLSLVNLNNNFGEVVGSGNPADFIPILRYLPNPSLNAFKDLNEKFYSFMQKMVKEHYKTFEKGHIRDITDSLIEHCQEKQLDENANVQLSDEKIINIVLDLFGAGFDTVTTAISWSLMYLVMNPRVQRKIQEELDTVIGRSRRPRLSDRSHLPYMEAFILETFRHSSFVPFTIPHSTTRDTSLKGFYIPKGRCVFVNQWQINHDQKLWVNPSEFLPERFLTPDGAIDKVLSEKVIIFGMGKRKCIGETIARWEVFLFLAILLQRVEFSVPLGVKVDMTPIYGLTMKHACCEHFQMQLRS
Description: Formation of reactive metabolites (glutathione adduct) by CYP1A1 with human liver cytosol. The following applies: human liver cytosol + recombinant CYP1A1, NADPH and GSH. Type of series: in vitro ADME. The procedure: Investigations into the potential for test compound to form a reactive metabolite were performed using an adapted method detailed by De Lin et al. Briefly, test compound was pre-incubated (n=2; 50 μM substrate concentration) at 37° C. for 5 min with mixed-gender human liver cytosol (1 mg/mL total protein concentration) in 100 mM phosphate buffer (pH 7.4) with 5 mM MgCl2 in the presence of recombinant human P450 enzyme 1A1 (100 nM), in the presence and absence of 5 mM glutathione. At the end of the pre-incubation period, 2 mM NADPH was added to each sample and the mixture incubated at 37° C. for 60 min. Immediately following the addition of NADPH and after the 60 min incubation period, aliquots of each sample were mixed with MeCN (containing internal standard) to terminate the reaction and precipitate the proteins.
Samples were mixed, centrifuged and following appropriate dilution, supernatants were analysed by LC-MS utilising a high-resolution mass spectrometer to perform metabolite identification and characterisation analysis.

In series [2] the test system is α-synuclein in ReNcell VM Neuronal cells. The experiment in a line: Modulation of α-synuclein aggregation. Type of series: cell-based. The procedure:
Compounds were assessed for their ability to modulate α-synuclein aggregation. ReNcell VM Neuronal cells were transduced with α-synuclein encoded adenovirus, and compounds were added after 24 hours. After 72 hours, compound was refreshed. After an additional 72 h, cells were fixated (a total of 6 days of compound treatment). Two distinct α-synuclein antibodies were added (Syn205 and MJF-14), imaging was performed on IN Cell 2200 at 10× magnification. Immunoreactivity is quantified by a high content algorithm. Compound data is normalized to a negative control (0.1% DMSO) and a positive control (10 μM KU0063794; CAS 938440-64-3).

The next series concerns HUVEC. The experiment in a line: HUVEC Cell Viability (CV) assay. It counts as cell-based, human. The following applies: Homo sapiens, alamarBlue. The procedure:
Cells are seeded at 10,000 cells/well in 96-well plates in HUVEC specific cell culture media. Cells are plated and cultured overnight (16-24 h) at 37° C. After the overnight culture, cells are washed and fed with the Assay Medium. Test compounds are applied and incubated with the cells for the designated time period, after which the cell viability is measured by alamarBlue method. […] The final DMSO concentration is 1%.
Fluorescence readings are recorded after the test compound and alamarBlue incubation. The excitation and emission wavelengths are 530 nm and 590 nm, respectively.
The percent of control is calculated by comparing the readings in the presence of the test compound to the vehicle control. Subsequently, the percent inhibition is calculated by subtracting the percent control activity from 100. IC50 values (concentration causing a half-maximal inhibition of the control value) are determined by non-linear regression analysis of the concentration-response curves using the Hill equation.
The reference compound used for this assay is Staurosporine.
On the technique in general: Alamar Blue is a resazurin reagent that responds to reducing activity.

Series [3] concerns HUVEC (human umbilical venous endothelial cells). The experiment in a line: HUVEC Tube Formation assay. Type of series: cell-based. Particulars: 18 h incubation, read-out: Tube formation GI50. The procedure:
HUVEC (human umbilical venous endothelial cells, 1.5×10^4/well, ATCC CRL-1730) are placed in an earlier prepared 96-well plate. Test substance and/or vehicle is then added to each well in a final concentration of 0.4% DMSO in growth medium under an atmosphere of 5% CO2 at 37° C. After an 18 h incubation period, morphology of the endothelial cell tubes, which resemble a capillary-like network, are evaluated by a confocal high-content imaging system. Disruption (anti-angiogenesis) of total tube length is measured from each photograph and determined relative to the vehicle control group. […] Compounds are screened at 30, 3, 0.3, 0.03 and 0.003 μM (or μg/mL) in triplicate.

For the next series, the target named is hERG ion channel (Homo sapiens, UniProt Q12809). The experiment in a line: hERG QPatch automated patch clamp. Type of series: cell-based. Particulars: CHO cells stably expressing hERG, QPatch 48, tail current. The procedure:
hERG IC50 data was supplied by Metrion using their standard assay protocol briefly detailed below.
hERG ion channel screening was assayed in CHO cells stably expressing the human ether-á-go-go related gene, using the QPatch 48 automated, chip-based planar patch clamp device. A Gigaohm seal between the cell membrane and treated silicon surface was obtained and specific external and internal buffered solutions applied to cells prior to recording. Following baseline vehicle treatment, compounds were applied in increasing concentrations (8 pt CRC), effects on hERG tail current amplitudes were measured in two-minute recordings.
(In general: hERG is a cardiac potassium channel; its block is linked to QT prolongation.)

pIC50: −log10 of the molar value. “Also recorded” adds a separate entry of the source.

Data on one compound can be found in patent publication US20230014226A1, “NEW COMPOUNDS AND METHODS” (BenevolentAI Bio Limited, priority 2019, published 2023).

For orientation: pIC50 means −log10 of the IC50, conventionally taken in molar units. A low value points to a large IC50. Usually GI50 stands for the concentration giving 50% growth inhibition.

hERG ion channel, sequence (Q12809 whole entry): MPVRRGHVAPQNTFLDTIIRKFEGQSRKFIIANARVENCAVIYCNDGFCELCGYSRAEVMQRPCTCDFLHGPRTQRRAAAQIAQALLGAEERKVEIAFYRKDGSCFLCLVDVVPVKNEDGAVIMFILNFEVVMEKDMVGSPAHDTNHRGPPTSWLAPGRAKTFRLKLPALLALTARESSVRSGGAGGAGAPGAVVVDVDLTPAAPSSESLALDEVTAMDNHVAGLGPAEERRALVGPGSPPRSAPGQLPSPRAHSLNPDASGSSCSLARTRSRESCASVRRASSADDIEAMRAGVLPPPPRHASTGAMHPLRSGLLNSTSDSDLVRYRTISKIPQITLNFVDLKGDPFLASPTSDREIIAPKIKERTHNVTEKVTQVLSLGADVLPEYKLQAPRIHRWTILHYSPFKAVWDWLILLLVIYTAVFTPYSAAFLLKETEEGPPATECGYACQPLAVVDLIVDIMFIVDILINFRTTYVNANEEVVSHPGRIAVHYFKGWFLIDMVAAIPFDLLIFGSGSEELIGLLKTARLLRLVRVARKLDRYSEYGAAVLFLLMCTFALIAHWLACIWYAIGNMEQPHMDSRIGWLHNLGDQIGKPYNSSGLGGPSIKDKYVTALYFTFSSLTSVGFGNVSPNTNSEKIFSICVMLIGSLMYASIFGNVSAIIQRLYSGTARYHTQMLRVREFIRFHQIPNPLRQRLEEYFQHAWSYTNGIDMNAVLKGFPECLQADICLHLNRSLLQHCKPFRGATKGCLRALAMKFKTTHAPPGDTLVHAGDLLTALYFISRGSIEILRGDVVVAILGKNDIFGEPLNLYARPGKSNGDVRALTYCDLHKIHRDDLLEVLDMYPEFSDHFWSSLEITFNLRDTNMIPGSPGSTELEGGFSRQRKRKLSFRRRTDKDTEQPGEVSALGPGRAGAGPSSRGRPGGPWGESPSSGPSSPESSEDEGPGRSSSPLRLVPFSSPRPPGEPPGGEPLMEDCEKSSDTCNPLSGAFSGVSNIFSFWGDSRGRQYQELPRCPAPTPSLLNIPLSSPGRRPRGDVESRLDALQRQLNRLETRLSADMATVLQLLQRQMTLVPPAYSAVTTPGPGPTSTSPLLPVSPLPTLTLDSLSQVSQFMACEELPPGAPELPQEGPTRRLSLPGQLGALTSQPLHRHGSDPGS

`Cc1ccc(C(=O)Nc2cn(C(C)C)cn2)cc1C#Cc1cccnc1` [Example 25, N-(1-isopropylimidazol-4-yl)-4-methyl-3-[2-(3-pyridyl)ethynyl]benzamide]: the “formation of direct glutathione adduct” value in series [1] (50 μM, 60 min) was “does not form a glutathione adduct; also recorded: no products of direct glutathione conjugation were observed”. Besides, the “metabolites identified as products of oxidation and glutathione conjugation” value in series [1] is listed as “Two very minor metabolites”. In addition, the “amount of α-synuclein present in ReNcell VM neuronal cells (FIG. 4)” value in series [2] (6 days of compound treatment, antibodies Syn205 and MJF-14) was “dose dependant reduction”. Further, the pIC50 in series [2] (ReNcell VM, 100% = reduction equal to 10 μM KU0063794, 0% = 0.1% DMSO) was 5.00 to 6.00; with HUVEC it was 4.35; at hERG ion channel, less than 5.00. The GI50 in series [3] is greater than 10 µM.
